Laboratory results from the NIST ThermoML archive (doi:10.1021/je060271a).
± gives the expanded uncertainty stated by the source.

Conditions: 303.15 K, Liquid, Vibrating tube method

SMILES: CCCCC(=O)OCC(COC(=O)CCCC)(COC(=O)CCCC)COC(=O)CCCC [pentaerythritol tetrapentanoate]
- mass density (2232.7 kPa): 1012.2 ± 1.2 kg/m3
- mass density (2240.1 kPa): 1012.3 ± 1.2 kg/m3
- mass density (2247.8 kPa): 1012.4 ± 1.2 kg/m3
- mass density (2256.6 kPa): 1012.3 ± 1.2 kg/m3
- mass density (2264.4 kPa): 1012.4 ± 1.2 kg/m3
- mass density (2272.4 kPa): 1012.3 ± 1.2 kg/m3
- mass density (2281.6 kPa): 1012.4 ± 1.2 kg/m3
- mass density (2289.2 kPa): 1012.3 ± 1.2 kg/m3
- mass density (2297.4 kPa): 1012.3 ± 1.2 kg/m3
- mass density (2305.2 kPa): 1012.3 ± 1.2 kg/m3
- mass density (2314.7 kPa): 1012.3 ± 1.2 kg/m3
- mass density (2322.9 kPa): 1012.2 ± 1.2 kg/m3
- mass density (2330.3 kPa): 1012.3 ± 1.2 kg/m3
- mass density (2339.9 kPa): 1012.4 ± 1.2 kg/m3
- mass density (2348.2 kPa): 1012.5 ± 1.2 kg/m3
- mass density (2356.9 kPa): 1012.5 ± 1.2 kg/m3
- mass density (2365.6 kPa): 1012.3 ± 1.2 kg/m3
- mass density (2373.5 kPa): 1012.5 ± 1.2 kg/m3
- mass density (2383.8 kPa): 1012.3 ± 1.2 kg/m3
- mass density (2391.9 kPa): 1012.4 ± 1.2 kg/m3
- mass density (2402.3 kPa): 1012.4 ± 1.2 kg/m3
- mass density (2411 kPa): 1012.3 ± 1.2 kg/m3
- mass density (2419.3 kPa): 1012.5 ± 1.2 kg/m3
- mass density (2429.4 kPa): 1012.4 ± 1.2 kg/m3
- mass density (2438.1 kPa): 1012.4 ± 1.2 kg/m3
- mass density (2446.9 kPa): 1012.4 ± 1.2 kg/m3
- mass density (2455.6 kPa): 1012.5 ± 1.2 kg/m3
- mass density (2464.8 kPa): 1012.4 ± 1.2 kg/m3
- mass density (2475.4 kPa): 1012.4 ± 1.2 kg/m3
- mass density (2484.4 kPa): 1012.5 ± 1.2 kg/m3
- mass density (2493.4 kPa): 1012.4 ± 1.2 kg/m3
- mass density (2504.2 kPa): 1012.4 ± 1.2 kg/m3
- mass density (2513.4 kPa): 1012.4 ± 1.2 kg/m3
- mass density (2522.4 kPa): 1012.5 ± 1.2 kg/m3
- mass density (2531.8 kPa): 1012.5 ± 1.2 kg/m3
- mass density (2543 kPa): 1012.6 ± 1.2 kg/m3
- mass density (2552.4 kPa): 1012.5 ± 1.2 kg/m3
- mass density (2561.7 kPa): 1012.5 ± 1.2 kg/m3
- mass density (2573.2 kPa): 1012.4 ± 1.2 kg/m3
- mass density (2582.7 kPa): 1012.6 ± 1.2 kg/m3
- mass density (2592.3 kPa): 1012.5 ± 1.2 kg/m3
- mass density (2601.8 kPa): 1012.5 ± 1.2 kg/m3
- mass density (2613.6 kPa): 1012.6 ± 1.2 kg/m3
- mass density (2623.2 kPa): 1012.5 ± 1.2 kg/m3
- mass density (2632.7 kPa): 1012.5 ± 1.2 kg/m3
- mass density (2642.9 kPa): 1012.6 ± 1.2 kg/m3
- mass density (2654.9 kPa): 1012.6 ± 1.2 kg/m3
- mass density (2664.6 kPa): 1012.5 ± 1.2 kg/m3
- mass density (2676.8 kPa): 1012.5 ± 1.2 kg/m3
- mass density (2686.8 kPa): 1012.6 ± 1.2 kg/m3
- mass density (2697.2 kPa): 1012.6 ± 1.2 kg/m3
- mass density (2707.4 kPa): 1012.6 ± 1.2 kg/m3
- mass density (2719.9 kPa): 1012.6 ± 1.2 kg/m3
- mass density (2730.3 kPa): 1012.6 ± 1.2 kg/m3
- mass density (2740.9 kPa): 1012.6 ± 1.2 kg/m3
- mass density (2751.7 kPa): 1012.5 ± 1.2 kg/m3
- mass density (2764.8 kPa): 1012.6 ± 1.2 kg/m3
- mass density (2775.1 kPa): 1012.6 ± 1.2 kg/m3
- mass density (2785.8 kPa): 1012.7 ± 1.2 kg/m3
- mass density (2799.2 kPa): 1012.6 ± 1.2 kg/m3
- mass density (2810.1 kPa): 1012.7 ± 1.2 kg/m3
- mass density (2820.9 kPa): 1012.7 ± 1.2 kg/m3
- mass density (2833.5 kPa): 1012.7 ± 1.2 kg/m3
- mass density (2844.6 kPa): 1012.7 ± 1.2 kg/m3
- mass density (2855.9 kPa): 1012.6 ± 1.2 kg/m3
- mass density (2869.2 kPa): 1012.7 ± 1.2 kg/m3
- mass density (2880.7 kPa): 1012.7 ± 1.2 kg/m3
- mass density (2892.5 kPa): 1012.8 ± 1.2 kg/m3
- mass density (2904.8 kPa): 1012.8 ± 1.2 kg/m3
- mass density (2916.2 kPa): 1012.6 ± 1.2 kg/m3
- mass density (2930.1 kPa): 1012.7 ± 1.2 kg/m3
- mass density (2941.7 kPa): 1012.8 ± 1.2 kg/m3
- mass density (2953.3 kPa): 1012.8 ± 1.2 kg/m3
- mass density (2967.4 kPa): 1012.8 ± 1.2 kg/m3
- mass density (2979.5 kPa): 1012.7 ± 1.2 kg/m3
- mass density (2991.5 kPa): 1012.8 ± 1.2 kg/m3
- mass density (3006.1 kPa): 1012.7 ± 1.2 kg/m3
- mass density (3018.4 kPa): 1012.8 ± 1.2 kg/m3
- mass density (3030.5 kPa): 1012.7 ± 1.2 kg/m3
- mass density (3043.3 kPa): 1012.8 ± 1.2 kg/m3
- mass density (3058.9 kPa): 1012.8 ± 1.2 kg/m3
- mass density (3070.7 kPa): 1012.9 ± 1.2 kg/m3
- mass density (3083.2 kPa): 1012.8 ± 1.2 kg/m3
- mass density (3096 kPa): 1012.8 ± 1.2 kg/m3
- mass density (3108.7 kPa): 1012.8 ± 1.2 kg/m3
- mass density (3123.9 kPa): 1012.9 ± 1.2 kg/m3
- mass density (3136.6 kPa): 1012.8 ± 1.2 kg/m3
- mass density (3149.9 kPa): 1013 ± 1.2 kg/m3
- mass density (3165.5 kPa): 1012.9 ± 1.2 kg/m3
- mass density (3179.1 kPa): 1013 ± 1.2 kg/m3
- mass density (3192.6 kPa): 1012.9 ± 1.2 kg/m3
- mass density (3205.9 kPa): 1012.9 ± 1.2 kg/m3
- mass density (3222.1 kPa): 1012.9 ± 1.2 kg/m3
- mass density (3236.3 kPa): 1012.9 ± 1.2 kg/m3
- mass density (3249.8 kPa): 1012.8 ± 1.2 kg/m3
- mass density (3263.8 kPa): 1013 ± 1.2 kg/m3
- mass density (3280.5 kPa): 1013 ± 1.2 kg/m3
- mass density (3294.2 kPa): 1013 ± 1.2 kg/m3
- mass density (3310.8 kPa): 1013 ± 1.2 kg/m3
- mass density (3324.8 kPa): 1013 ± 1.2 kg/m3
- mass density (3339.2 kPa): 1013.1 ± 1.2 kg/m3
- mass density (3353.6 kPa): 1013 ± 1.2 kg/m3
- mass density (3368.2 kPa): 1013 ± 1.2 kg/m3
- mass density (3385.5 kPa): 1013 ± 1.2 kg/m3
- mass density (3400.2 kPa): 1013.1 ± 1.2 kg/m3
- mass density (3415.1 kPa): 1013.1 ± 1.2 kg/m3
- mass density (3433 kPa): 1013.1 ± 1.2 kg/m3
- mass density (3448.4 kPa): 1012.9 ± 1.2 kg/m3
- mass density (3463.3 kPa): 1013.1 ± 1.2 kg/m3
- mass density (3478.2 kPa): 1013.1 ± 1.2 kg/m3
- mass density (3496.8 kPa): 1013.2 ± 1.2 kg/m3
- mass density (3512 kPa): 1013 ± 1.2 kg/m3
- mass density (3527.8 kPa): 1013.1 ± 1.2 kg/m3
- mass density (3546.5 kPa): 1013.2 ± 1.2 kg/m3
- mass density (3562.5 kPa): 1013.1 ± 1.2 kg/m3
- mass density (3578.4 kPa): 1013.2 ± 1.2 kg/m3
- mass density (3594 kPa): 1013.2 ± 1.2 kg/m3
- mass density (3613.4 kPa): 1013.2 ± 1.2 kg/m3
- mass density (3630 kPa): 1013 ± 1.2 kg/m3
- mass density (3646.7 kPa): 1013.2 ± 1.2 kg/m3
- mass density (3663.3 kPa): 1013.1 ± 1.2 kg/m3
- mass density (3683.1 kPa): 1013.2 ± 1.2 kg/m3
- mass density (3699.3 kPa): 1013.2 ± 1.2 kg/m3
- mass density (3716.7 kPa): 1013.2 ± 1.2 kg/m3
- mass density (3734 kPa): 1013.3 ± 1.2 kg/m3
- mass density (3753.9 kPa): 1013.3 ± 1.2 kg/m3
- mass density (3771.2 kPa): 1013.3 ± 1.2 kg/m3
- mass density (3789.1 kPa): 1013.3 ± 1.2 kg/m3
- mass density (3806.2 kPa): 1013.3 ± 1.2 kg/m3
- mass density (3827.7 kPa): 1013.4 ± 1.2 kg/m3
- mass density (3845.4 kPa): 1013.4 ± 1.2 kg/m3
- mass density (3863.8 kPa): 1013.3 ± 1.2 kg/m3
- mass density (3881.9 kPa): 1013.3 ± 1.2 kg/m3
- mass density (3903.9 kPa): 1013.3 ± 1.2 kg/m3
- mass density (3927.5 kPa): 1013.3 ± 1.2 kg/m3
- mass density (4003.7 kPa): 1013.4 ± 1.2 kg/m3
- mass density (4122.2 kPa): 1013.5 ± 1.2 kg/m3
- mass density (4149.2 kPa): 1013.6 ± 1.2 kg/m3
- mass density (4165.7 kPa): 1013.5 ± 1.2 kg/m3
- mass density (4185.8 kPa): 1013.5 ± 1.2 kg/m3
- mass density (4202.9 kPa): 1013.6 ± 1.2 kg/m3
- mass density (4220.2 kPa): 1013.5 ± 1.2 kg/m3
- mass density (4238.1 kPa): 1013.5 ± 1.2 kg/m3
- mass density (4257.1 kPa): 1013.5 ± 1.2 kg/m3
- mass density (4275.3 kPa): 1013.5 ± 1.2 kg/m3
- mass density (4293.5 kPa): 1013.7 ± 1.2 kg/m3
- mass density (4311 kPa): 1013.6 ± 1.2 kg/m3
- mass density (4333.3 kPa): 1013.7 ± 1.2 kg/m3
- mass density (4464.7 kPa): 1013.8 ± 1.2 kg/m3
- mass density (4605.8 kPa): 1013.8 ± 1.2 kg/m3
- mass density (4684.8 kPa): 1013.8 ± 1.2 kg/m3
- mass density (4702.2 kPa): 1013.9 ± 1.2 kg/m3
- mass density (4719.7 kPa): 1014 ± 1.2 kg/m3
- mass density (4737.5 kPa): 1013.9 ± 1.2 kg/m3
- mass density (4776.3 kPa): 1013.9 ± 1.2 kg/m3
- mass density (4798.6 kPa): 1013.9 ± 1.2 kg/m3
- mass density (4817.1 kPa): 1014 ± 1.2 kg/m3
- mass density (4836 kPa): 1013.9 ± 1.2 kg/m3
- mass density (4855.9 kPa): 1014 ± 1.2 kg/m3
- mass density (4875 kPa): 1013.9 ± 1.2 kg/m3
- mass density (4897.8 kPa): 1014.2 ± 1.2 kg/m3
